Results published in PubChem BioAssay AID256 (DTP/NCI, 2004).
Where “and” joins values, the source holds several entries; their conditions need not be identical. Equal entries are not always repeated. Toxic doses and inconclusive results are not listed.

System: CD2F1 mice, L1210 leukemia ip, survival T/C
Experiment: NCI In Vivo Anticancer Drug Screen. Data for tumor model L1210 Leukemia (intraperitoneal) in CD2F1 (CDF1) mice
Details: higher = longer survival
Outline: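 Compound-dosed mice with transplantable tumor versus matched vehicle controls; endpoint ratio T/C reported.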

[1] = endpoint: mean survival time, dose: 100.0 mg/kg/injection, schedule: Q01DX009 (ip), vehicle: saline with Tween-80
[2] = endpoint: mean survival time, dose: 200.0 mg/kg/injection, schedule: Q01DX009 (ip), vehicle: saline with Tween-80
[3] = endpoint: mean survival time, dose: 400.0 mg/kg/injection, schedule: Q01DX009 (ip), vehicle: saline with Tween-80
[4] = endpoint: mean survival time, dose: 100.0 mg/kg/injection, schedule: Q04DX003 (ip), vehicle: saline
[5] = endpoint: mean survival time, dose: 200.0 mg/kg/injection, schedule: Q04DX003 (ip), vehicle: saline
[6] = endpoint: mean survival time, dose: 400.0 mg/kg/injection, schedule: Q04DX003 (ip), vehicle: saline
[7] = endpoint: mean survival time, dose: 100.0 mg/kg/injection, schedule: Q04DX002 (ip), vehicle: saline with Tween-80
[8] = endpoint: mean survival time, dose: 200.0 mg/kg/injection, schedule: Q04DX002 (ip), vehicle: saline with Tween-80
[9] = endpoint: mean survival time, dose: 400.0 mg/kg/injection, schedule: Q04DX002 (ip), vehicle: saline with Tween-80

Compound: C/C=C(\C)C(C)O (stereo unspecified)
- T/C (endpoint: mean survival time, dose: 50.0 mg/kg/injection, schedule: Q01DX005 (ip), vehicle: saline): 87 % of control
- T/C (endpoint: mean survival time, dose: 50.0 mg/kg/injection, schedule: Q01DX009 (ip), vehicle: saline with Tween-80): 98 % of control
- T/C (endpoint: mean survival time, dose: 50.0 mg/kg/injection, schedule: Q04DX002 (ip), vehicle: saline + alcohol): 92 % of control
- T/C (endpoint: mean survival time, dose: 100.0 mg/kg/injection, schedule: Q01DX005 (ip), vehicle: saline): 102 % of control
- T/C [1]: 98 % of control
- T/C (endpoint: mean survival time, dose: 100.0 mg/kg/injection, schedule: Q04DX002 (ip), vehicle: saline + alcohol): 103 % of control
- T/C (endpoint: mean survival time, dose: 200.0 mg/kg/injection, schedule: Q01DX005 (ip), vehicle: saline): 94 % of control
- T/C [2]: 95 % of control
- T/C (endpoint: mean survival time, dose: 200.0 mg/kg/injection, schedule: Q04DX002 (ip), vehicle: saline + alcohol): 101 % of control
- T/C (endpoint: mean survival time, dose: 400.0 mg/kg/injection, schedule: Q01DX005 (ip), vehicle: saline): 94 % of control
- T/C [3]: 102 % of control
- T/C (endpoint: mean survival time, dose: 400.0 mg/kg/injection, schedule: Q04DX002 (ip), vehicle: saline + alcohol): 103 % of control

Compound: OCNC(=S)c1c(Cl)cccc1Cl
- T/C [1]: 98 % of control
- T/C [2]: 102 % of control

Compound: Nc1ccccc1O
- T/C [1]: 114 % of control
- T/C [4]: 100 % of control
- T/C [2]: 114 % of control
- T/C [5]: 96 % of control
- T/C [6]: 119 % of control

Compound: O=C(NO)c1cc(Br)cc(Br)c1O
- T/C [7]: 96 % of control
- T/C [8]: 92 % of control
- T/C [9]: 103 % of control

Compound: CN(CC#CCOc1ccc(Br)cc1)c1ccccc1
- T/C [1]: 103 % of control
- T/C [2]: 100 % of control
- T/C [3]: 97 % of control

Compound: O=c1nc(-c2ccccc2)c(-c2ccccc2)n[nH]1
- T/C [4]: 97 % of control
- T/C [5]: 94 % of control

Compound: Nc1nc2c(c(=O)[nH]1)N(C(=O)NCCCl)C(CNc1ccc(C(=O)NC(CCC(=O)O)C(=O)O)cc1)CN2 (stereo unspecified)
- T/C (endpoint: mean survival time, dose: 100.0 mg/kg/injection, schedule: Q01DX001 (ip), vehicle: sodium bicarbonate): 94 % of control
- T/C (endpoint: mean survival time, dose: 200.0 mg/kg/injection, schedule: Q01DX001 (ip), vehicle: sodium bicarbonate): 100 % of control
- T/C (endpoint: mean survival time, dose: 400.0 mg/kg/injection, schedule: Q01DX001 (ip), vehicle: sodium bicarbonate): 97 % of control

Compound: CC[C@@]1(O)C(=O)OCc2c1cc1n(c2=O)Cc2cc3c(CN(C)C)c(O)ccc3nc2-1
- T/C (endpoint: median survival time, dose: 5.0 mg/kg/injection, schedule: Q04DX002 (ip), vehicle: water): 119 % of control
- T/C (endpoint: median survival time, dose: 20.0 mg/kg/injection, schedule: Q04DX002 (ip), vehicle: water): 183 % of control
- T/C (endpoint: median survival time, dose: 40.0 mg/kg/injection, schedule: Q04DX002 (ip), vehicle: water): 264 % of control

Compound: Cc1cc(C)nc(N)n1
- T/C (endpoint: mean survival time, dose: 100.0 mg/kg/injection, schedule: Q04DX003 (ip), vehicle: saline with Tween-80): 95 % of control
- T/C (endpoint: mean survival time, dose: 200.0 mg/kg/injection, schedule: Q04DX003 (ip), vehicle: saline with Tween-80): 98 % of control
- T/C (endpoint: mean survival time, dose: 400.0 mg/kg/injection, schedule: Q04DX003 (ip), vehicle: saline with Tween-80): 98 % of control

Compound: CCCCCCCCCCCCCC(=O)O.[Pb]
- T/C (endpoint: mean survival time, dose: 75.0 mg/kg/injection, schedule: Q01DX001 (ip), vehicle: other): 98 % of control
- T/C (endpoint: mean survival time, dose: 150.0 mg/kg/injection, schedule: Q01DX001 (ip), vehicle: other): 101 % of control
- T/C (endpoint: mean survival time, dose: 300.0 mg/kg/injection, schedule: Q01DX001 (ip), vehicle: other): 101 % of control

Compound: NC(=S)N/N=C/c1nccn1-c1cccc([N+](=O)[O-])c1
- T/C (endpoint: mean survival time, dose: 25.0 mg/kg/injection, schedule: Q04DX002 (ip), vehicle: Klucel (hydroxypropylcellulose) (HPC)): 101 % of control
- T/C (endpoint: mean survival time, dose: 50.0 mg/kg/injection, schedule: Q04DX002 (ip), vehicle: Klucel (hydroxypropylcellulose) (HPC)): 96 % of control
- T/C (endpoint: mean survival time, dose: 100.0 mg/kg/injection, schedule: Q04DX002 (ip), vehicle: Klucel (hydroxypropylcellulose) (HPC)): 104 % of control

Compound: O=C(c1ccccc1)c1ccsc1C(=O)O
- T/C (endpoint: mean survival time, dose: 25.0 mg/kg/injection, schedule: Q04DX002 (ip), vehicle: saline with Tween-80): 96 % of control
- T/C (endpoint: mean survival time, dose: 50.0 mg/kg/injection, schedule: Q04DX002 (ip), vehicle: saline with Tween-80): 96 % of control

Compound: CCOc1nc(N)nc2c1ncn2C1CC(O)C(CO)O1 (stereo unspecified)
- T/C (endpoint: mean survival time, dose: 12.5 mg/kg/injection, schedule: Q01DX005 (ip), vehicle: water): 95 % of control
- T/C (endpoint: mean survival time, dose: 25.0 mg/kg/injection, schedule: Q01DX005 (ip), vehicle: water): 98 % of control
- T/C (endpoint: mean survival time, dose: 50.0 mg/kg/injection, schedule: Q01DX005 (ip), vehicle: water): 102 % of control
- T/C (endpoint: mean survival time, dose: 100.0 mg/kg/injection, schedule: Q01DX005 (ip), vehicle: water): 109 % of control
- T/C (endpoint: mean survival time, dose: 200.0 mg/kg/injection, schedule: Q01DX005 (ip), vehicle: water): 98 % of control

Compound: CC1(CC(C)(C)c2ccccc2)OCCO1
- T/C (endpoint: mean survival time, dose: 25.0 mg/kg/injection, schedule: Q01DX009 (ip), vehicle: Klucel (hydroxypropylcellulose) (HPC)): 100 % of control
- T/C (endpoint: mean survival time, dose: 50.0 mg/kg/injection, schedule: Q01DX009 (ip), vehicle: Klucel (hydroxypropylcellulose) (HPC)): 98 % of control
- T/C (endpoint: mean survival time, dose: 100.0 mg/kg/injection, schedule: Q01DX009 (ip), vehicle: Klucel (hydroxypropylcellulose) (HPC)): 100 % of control
- T/C (endpoint: mean survival time, dose: 200.0 mg/kg/injection, schedule: Q01DX009 (ip), vehicle: Klucel (hydroxypropylcellulose) (HPC)): 102 % of control
- T/C (endpoint: mean survival time, dose: 400.0 mg/kg/injection, schedule: Q01DX009 (ip), vehicle: Klucel (hydroxypropylcellulose) (HPC)): 100 % of control

Compound: O=C(O)C/[N+]([O-])=N\O
- T/C [4]: 96 % of control
- T/C [5]: 102 % of control
- T/C [6]: 105 % of control

Compound: CC(C)(C)N1CC2C(c3ccccc3)NNC2(O)C1=O (stereo unspecified)
- T/C [1]: 109 % of control
- T/C [2]: 113 % of control
- T/C [3]: 105 % of control

Compound: C=CCC(C)(C)/C=N/N
- T/C (endpoint: mean survival time, dose: 37.5 mg/kg/injection, schedule: Q01DX009 (ip), vehicle: saline): 101 % of control
- T/C (endpoint: mean survival time, dose: 75.0 mg/kg/injection, schedule: Q01DX001 (ip), vehicle: saline): 95 % of control
- T/C (endpoint: mean survival time, dose: 75.0 mg/kg/injection, schedule: Q01DX009 (ip), vehicle: saline): 100 % of control
- T/C (endpoint: mean survival time, dose: 150.0 mg/kg/injection, schedule: Q01DX001 (ip), vehicle: saline): 98 % of control
- T/C (endpoint: mean survival time, dose: 150.0 mg/kg/injection, schedule: Q01DX009 (ip), vehicle: saline): 107 % of control

Compound: O=S(=O)(CCCCCl)Nc1ccccn1
- T/C [7]: 91 % of control
- T/C [8]: 94 % of control
- T/C [9]: 109 % of control

Compound: CC1CC(C)CC(C)C(O)/C(C#N)=C/C=C/CC(C2CCCC2C(=O)O)OC(=O)CC(O)C(C)C1 (stereo unspecified)
- T/C (endpoint: mean survival time, dose: 1.56 mg/kg/injection, schedule: Q01DX009 (ip), vehicle: Klucel (hydroxypropylcellulose) (HPC)): 105 % of control
- T/C (endpoint: mean survival time, dose: 3.13 mg/kg/injection, schedule: Q01DX009 (ip), vehicle: Klucel (hydroxypropylcellulose) (HPC)): 109 % of control
- T/C (endpoint: mean survival time, dose: 6.25 mg/kg/injection, schedule: Q01DX009 (ip), vehicle: Klucel (hydroxypropylcellulose) (HPC)): 89 % of control and 96 % of control
